The results in this text go back to US7132012B2, “Phthalocyanine compound, ink, ink jet recording method and image forming method” (Fuji Photo Film Co., Ltd., priority 2004, dated 2006).

The series in a line: Color toner image: light fastness property (xenon light). Format: physicochemical. As to conditions: xenon light 85,000 lux, 5 days. The procedure:
As for each of the phthalocyanine compounds of the invention (compounds 101, 102, 103 and 107), 3 parts by weight of the compound and 100 parts by weight of a resin for toner [styrene-acrylic acid ester copolymer; trade name HIMER TB-1000F (manufactured by Sanyo Chemical Industries, Ltd.)] were mixed and ground in a ball mill. Then, the mixture was heated to 150° C. to be molten and mixed. After cooling, the mixture was coarsely crushed using a hammer mill, and then, finely pulverized by a pulverizer of an air jet system. The resulting particles were further classified, and 1 to 20 micro was selected, resulting in a toner. To 10 parts of the toner, 900 parts of carrier iron powder (trade name EFV250/400; manufactured by Nippon Iron Powder) was uniformly mixed, resulting in a developer. Similarly, each sample of the comparative coloring agents shown in Table-7 were prepared in the same manner, except that the dye was used in an amount of 3 parts by weight, and the pigment was used in an amount of 6 parts by weight. By the use of these developers, copying was carried out by means of a dry ordinary paper electrophotographic copier [trade name NP-5000; manufactured by CANON, Corp.].
Reflected images (images on paper) and transmitted images (OHP images) were formed on paper and OHP sheets, respectively, with a developer using a color toner containing the compounds of the invention in accordance with the foregoing image forming method, and the evaluation tests were conducted in the following manner. Incidentally, the amount of the toner deposited was evaluated in the range of 0.7±0.05 (mg/cm^2).
The light fastness property was evaluated in the following manner. The image density Ci immediately after recording was measured, and thereafter, the image was irradiated with xenon light (85,000 lux) by means of a weather meter (Atlas C. 165), for 5 days. Then, the image density Cf was measured again, and the coloring matter residual ratio ([…]) was determined from the difference in image density between before and after xenon light irradiation. The image density was measured by means of a reflection densitometer (X-Rite 310TR). In Table-7, the case where the coloring matter residual ratio was 90% or more is indicated with ∘; less than 90 to 80%, Δ; and less than 80%, x.
For the compound `CNc1ccc(O)c2c1C(=O)c1c(O)ccc(NC)c1C2=O` [Comparative dye 5], the Light fastness property entry was “Δ (less than 90 to 80%, Δ)”.
Take `Cc1ccc(Nc2ccc(Nc3ccc(C)cc3)c3c2C(=O)c2c(Nc4ccc(C)cc4)ccc(Nc4ccc(C)cc4)c2C3=O)cc1` [Comparative dye 6]: the Light fastness property result is reported as “Δ (less than 90 to 80%, Δ)”.
C.I. Solvent Blue 38: the Light fastness property entry was “∘ (the case where the coloring matter residual ratio was 90% or more is indicated with ∘)”.
With C.I. Solvent Blue 70, the Light fastness property result is listed as “∘ (the case where the coloring matter residual ratio was 90% or more is indicated with ∘)”.
